Article PMC7449246, “Natural HDAC‐1/8 inhibitor baicalein exerts therapeutic effect in CBF‐AML” (Clinical and Translational Medicine, 2020)

Tests used:
[1] = target: T1, HDAC-1 (Homo sapiens, UniProt Q13547); test: fluorogenic deacetylase assay with purified HDAC; supported by CETSA in ME-1 cells (Tagg […] to […] °C); assay type: biochemical
T1 construct: gene HDAC1

[2] = target: T2, HDAC-8 (Homo sapiens, UniProt Q9BY41); test: as above; assay type: biochemical
T2 construct: gene HDAC8
T2 sequence (Q9BY41 1-377): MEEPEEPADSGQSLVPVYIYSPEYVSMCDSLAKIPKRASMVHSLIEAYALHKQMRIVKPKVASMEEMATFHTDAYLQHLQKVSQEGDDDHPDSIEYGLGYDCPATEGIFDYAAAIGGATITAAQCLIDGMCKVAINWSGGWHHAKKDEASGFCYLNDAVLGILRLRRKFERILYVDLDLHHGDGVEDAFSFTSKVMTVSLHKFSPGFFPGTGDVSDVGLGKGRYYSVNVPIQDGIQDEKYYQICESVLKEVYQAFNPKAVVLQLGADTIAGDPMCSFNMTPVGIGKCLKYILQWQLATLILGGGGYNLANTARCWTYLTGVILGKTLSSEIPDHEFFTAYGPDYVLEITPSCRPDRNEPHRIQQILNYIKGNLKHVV

T1 sequence (Q13547 whole entry): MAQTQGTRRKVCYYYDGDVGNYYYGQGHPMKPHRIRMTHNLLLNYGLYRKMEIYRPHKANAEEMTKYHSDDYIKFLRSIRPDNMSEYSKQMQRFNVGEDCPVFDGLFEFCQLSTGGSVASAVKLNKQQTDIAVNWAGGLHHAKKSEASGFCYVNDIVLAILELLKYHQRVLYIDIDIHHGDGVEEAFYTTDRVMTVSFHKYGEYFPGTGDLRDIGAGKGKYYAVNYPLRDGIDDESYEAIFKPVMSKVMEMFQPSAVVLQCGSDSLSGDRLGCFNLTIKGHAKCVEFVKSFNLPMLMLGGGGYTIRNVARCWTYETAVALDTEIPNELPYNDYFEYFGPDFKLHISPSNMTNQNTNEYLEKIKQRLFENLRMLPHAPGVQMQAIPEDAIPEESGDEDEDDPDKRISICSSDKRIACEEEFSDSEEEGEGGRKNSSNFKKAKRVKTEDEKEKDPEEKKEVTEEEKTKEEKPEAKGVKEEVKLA

IC50 [1]: 46.7 µM
IC50 [2]: 3.95 µM
Compound: O=c1cc(-c2ccccc2)oc2cc(O)c(O)c(O)c12 [Baicalein]
